Measurements reported in US9670203B2 (BeiGene, LTD., priority 2013, dated 2017).
Where two headings read alike, the source gives them in different places.

Legend:
B-Raf (V600E) = B-Raf (V600E) (Homo sapiens (Human), UniProt P15056, V600E); assay: Raf IC50 assay, time-resolved fluorescence energy transfer, B-Raf (V600E); format: biochemical; conditions: 0.1 mM ATP; read-out: IC50 (nM) B_Raf^V600E
C-Raf (Y340D/Y341D) = C-Raf (Y340D/Y341D) (Homo sapiens (Human), UniProt P04049, Y340D/Y341D); assay: Raf IC50 assay, time-resolved fluorescence energy transfer, C-Raf (Y340D/Y341D); format: biochemical; conditions: 0.1 mM ATP
Method: The assay was carried out in reactions (10 μL) containing 0.0625 nM B-Raf or 0.5 nM C-Raf, 25 mM Tris pH7.4, 10 mM MgCl2, 0.5 mM EGTA, 0.5 mM Na3VO4, 5 mM beta-glycerophosphate, 0.01% Triton X-100, 2.5 mM DTT, 0.1% BSA, 0.1 mM ATP, 13.7 nM GST-tagged MEK1 (Full-length protein with K97R mutation, recombinant protein purified from bacterial expression system) and 0-5 μM compounds disclosed herein (final concentration of 1% DMSO). The enzyme was incubated with the compounds at room temperature for 60 minutes and the reactions were initiated by the addition of ATP and GST-MEK1. After reaction at room temperature for 60 minutes, an equal volume of stop/detection solution was added according to the manufacture's instruction (CisBio Bioassays). The stop/detection solution contained Eu^3+ cryptate-conjugated anti-phospho MEK1/2 (Ser217/221) rabbit polyclonal antibody and d2-conjugated anti-GST mouse monoclonal antibody in buffer containing 25 mM Tris pH7.4, 400 mM KF, 50 mM EDTA, 0.01% BSA and 0.01% Triton X-100. Plates were sealed and incubated at room temperature for 2 hours, and the TR-FRET signals (ratio of fluorescence emission at 665 nm over emission at 620 nm with excitation at 337 nm wavelength) were recorded on a PHERAstar FS plate reader (BMG Labtech). Phosphorylation of MEK1 led to the binding of anti-phospho-MEK1/2 antibody to GST-MEK1 protein that place fluorescent donor (Eu^3+ crypate) in close proximity to the accepter d2 on the anti-GST antibody, thus resulting in a high degree of fluorescence resonance energy transfer from the donor fluorophore (at 620 nm) to the acceptor fluorophore (at 665 nm). […] The IC50 for each compound was derived from fitting the dose-response % inhibition data to the four-parameter logistic model by Graphpad Prism software.

wild type B-Raf = wild type B-Raf (Homo sapiens (Human), UniProt P15056); assay: WT B-Raf IC50 assay, time-resolved fluorescence energy transfer; format: biochemical
Method: The IC50 for each compound was calculated by non linear regression by Graphpad Prism software.

p61-A375 (pERK) = assay: ERK phosphorylation inhibition IC50 assay in p61-A375; format: cell-based; conditions: 1 hour compound treatment
Method: (§1) To express p61 in mammalian cells, cDNA encoding the p61 (Poulikakos et al., Nature. 2011 Nov. 23; 480(7377):387-90) was synthesized by Genscript and cloned into pLVX-IRES-Puro vector (Clontech). The cDNA was a modified form of p61 in which sequencing encoding the flag-epitope had been inserted to the C-terminus, resulting in the expression of flag-tagged forms of protein. A375 cells were stably transfected with the Flag-p61 expressing plasmid and selected with DMEM containing […] puromycin (Invitrogen). Cells were cloned by limiting dilution in a 96-wells plate and the clones screened by western blot analysis using a monoclonal antibody directed against the flag-epitope.
(§2) Growth medium was then replaced with 100 μL of serum free DMEM, cells were then treated with a 10-point titration of compounds disclosed herein. After 1 hour compound treatment, 50 μL of lysis buffer (Cisbio) were added to each well and incubated at room temperature with shaking for 30 minutes. A total of 16 μL of cell lysate from each well of a 96-well plate was transferred to a 384-well small volume white plate. Lysate from each well was incubated with 2 μL of Eu^3+-cryptate (donor) labeled anti-ERK antibody (Cisbio) and 2 μL of D2 (acceptor) labeled anti-phospho-ERK antibody (Cisbio) for 2 hours at room temperature. When donor and acceptor are in close proximity, excitation of the donor with laser triggers a Fluorescence Resonance Energy Transfer (FRET) towards the acceptor, which in turn fluoresces at 655 nm wavelength. Fluorescence values were measured using a BMG reader.
(§3) IC50 values for ERK inhibition were calculated by fitting dose-dependent data to the four-parameter logistic model using GraphPad Prism software.

A375 = assay: Anti-proliferative activity EC50 assay (CellTiter-Glo) in A375; format: cell-based; conditions: Homo sapiens, A-375, 72 h; 3-day exposure; read-out: Cell Proliferation EC50 (nM) A375
Method: (§4) The growth-inhibitory activity of compounds in A375 and p61-A375, was determined using CellTiter-Glo luminescent cell viability assay (Promega). The 2,000 cells were seeded per well of a 96-well plate to ensure logarithmic growth could occur over the 3 days treatment period. Cells were left to attach for 16 hours, cells were treated in duplicate with a 10-point dilution series. Following a 3-day exposure to compounds disclosed herein, a volume of CellTiter-Glo reagent equal to the volume of cell culture medium present in each well was added. Mixture was mixed on an orbital shaker for 2 minutes to allow cell lysis, followed by 10 minutes incubation at room temperature to allow stabilization of luminescent signal, which corresponded to quantitation of ATP and thus the quantitation of metabolically active cells. Luminescent signal was measured using Pherastar FS reader (BMG Labtech).
(§5) EC50 values for growth inhibition were calculated by fitting dose-dependent data to the four-parameter logistic model using GraphPad Prism software.

p61-A375 = assay: Anti-proliferative activity EC50 assay (CellTiter-Glo) in p61-A375; format: cell-based; conditions: 72 h; 3-day exposure; read-out: Cell Proliferation EC50 (nM) p61-A375
Method: as §1, §4, §5

Calu-6 (pERK) = assay: ERK phosphorylation inhibition IC50 assay in Calu-6; format: cell-based; conditions: Homo sapiens, 1 hour compound treatment
Method: as §2, §3

HeLa (pERK) = assay: ERK phosphorylation inhibition IC50 assay in HeLa; format: cell-based; conditions: Homo sapiens, 1 hour compound treatment
Method: as §2, §3

[1] = 2.5 mM ATP, read-out: IC50 (nM) B-Raf^WT 2.5 mM ATP
[2] = Km ATP (2.9 μM ATP), read-out: IC50 (nM) B-Raf^WT Km ATP

Sequence of B-Raf (V600E) (P15056 whole entry V600E): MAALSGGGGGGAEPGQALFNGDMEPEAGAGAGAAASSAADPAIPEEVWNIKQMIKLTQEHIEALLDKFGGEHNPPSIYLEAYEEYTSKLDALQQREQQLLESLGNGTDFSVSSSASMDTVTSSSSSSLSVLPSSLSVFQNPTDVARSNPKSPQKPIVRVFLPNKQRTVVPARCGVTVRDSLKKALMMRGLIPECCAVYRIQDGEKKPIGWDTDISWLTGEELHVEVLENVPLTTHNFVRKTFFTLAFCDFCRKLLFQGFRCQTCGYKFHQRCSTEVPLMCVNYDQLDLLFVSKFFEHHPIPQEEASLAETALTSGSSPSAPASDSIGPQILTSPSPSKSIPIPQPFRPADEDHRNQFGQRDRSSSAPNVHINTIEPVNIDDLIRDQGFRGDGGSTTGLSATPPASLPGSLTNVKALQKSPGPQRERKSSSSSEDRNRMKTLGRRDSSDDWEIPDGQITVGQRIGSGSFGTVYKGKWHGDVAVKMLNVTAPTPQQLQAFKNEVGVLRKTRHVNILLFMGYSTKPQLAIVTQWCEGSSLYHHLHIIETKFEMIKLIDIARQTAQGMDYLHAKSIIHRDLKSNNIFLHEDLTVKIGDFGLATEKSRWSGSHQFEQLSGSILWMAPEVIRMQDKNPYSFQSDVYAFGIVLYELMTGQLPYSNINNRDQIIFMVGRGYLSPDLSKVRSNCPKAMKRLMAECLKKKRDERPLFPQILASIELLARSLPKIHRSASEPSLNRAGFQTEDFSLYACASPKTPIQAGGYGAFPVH
Sequence of C-Raf (Y340D/Y341D) (P04049 whole entry Y340D/Y341D): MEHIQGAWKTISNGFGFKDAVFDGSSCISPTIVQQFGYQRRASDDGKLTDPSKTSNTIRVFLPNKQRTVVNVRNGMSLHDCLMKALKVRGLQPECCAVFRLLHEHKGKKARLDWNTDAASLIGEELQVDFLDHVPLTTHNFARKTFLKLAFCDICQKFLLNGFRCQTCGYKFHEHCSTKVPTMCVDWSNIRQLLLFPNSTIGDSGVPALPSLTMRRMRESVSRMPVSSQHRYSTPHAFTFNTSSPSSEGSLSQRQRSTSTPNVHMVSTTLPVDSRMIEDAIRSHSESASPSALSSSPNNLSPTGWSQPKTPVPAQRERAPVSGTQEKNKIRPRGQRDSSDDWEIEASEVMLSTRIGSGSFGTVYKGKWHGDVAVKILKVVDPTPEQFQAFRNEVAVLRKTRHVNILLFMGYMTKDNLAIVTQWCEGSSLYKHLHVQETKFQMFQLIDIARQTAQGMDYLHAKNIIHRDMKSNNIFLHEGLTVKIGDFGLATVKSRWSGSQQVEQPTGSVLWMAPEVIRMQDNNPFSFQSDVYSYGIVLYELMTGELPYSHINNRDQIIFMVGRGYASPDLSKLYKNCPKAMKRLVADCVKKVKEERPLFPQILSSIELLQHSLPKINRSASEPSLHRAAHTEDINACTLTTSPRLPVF
Sequence of wild type B-Raf (P15056 whole entry): as the sequence (P15056 whole entry V600E) above, with E600V counted along it

With O=C1CCc2c(Oc3ccc4c(c3)[C@H]3[C@H](NC(=O)Nc5cc(F)cc(F)c5)[C@H]3O4)ccnc2N1 [Compound 1.23] the IC50 (B-Raf (V600E)) was 1.8 nM, the IC50 (C-Raf (Y340D/Y341D)) was 0.3 nM and the IC50 (wild type B-Raf; [1]) was 12 nM. It also gave an IC50 (wild type B-Raf; [2]) of 3.7 nM, an IC50 (p61-A375 (pERK)) of 253 nM and an EC50 (A375) of 109 nM. The EC50 (p61-A375) was 479 nM, the IC50 (Calu-6 (pERK)) was 101 nM and the IC50 (HeLa (pERK)) was 189 nM.

Compound O=C1CCc2c(Oc3ccc4c(c3)[C@H]3[C@H](NC(=O)Nc5ccc(F)c(C(F)(F)F)c5)[C@H]3O4)ccnc2N1 [Compound 1.32] has an IC50 (B-Raf (V600E)) of 7.7 nM, an IC50 (C-Raf (Y340D/Y341D)) of 1.2 nM and an IC50 (wild type B-Raf; [1]) of 58 nM. For the same compound, the IC50 (wild type B-Raf; [2]) was 17 nM, the IC50 (p61-A375 (pERK)) was 433 nM and the EC50 (A375) was 55 nM. It also gave an EC50 (p61-A375) of 527 nM, an IC50 (Calu-6 (pERK)) of 301 nM and an IC50 (HeLa (pERK)) of 536 nM.

Work on O=C1CCc2c(Oc3ccc4c(c3)[C@H]3[C@H](NC(=O)Nc5ccc(F)cc5F)[C@H]3O4)ccnc2N1 [Compound 1.35] yielded an IC50 (B-Raf (V600E)) of 0.59 nM, an IC50 (C-Raf (Y340D/Y341D)) of 0.25 nM and an IC50 (wild type B-Raf; [1]) of 4.1 nM. The IC50 (wild type B-Raf; [2]) was 1 nM, the IC50 (p61-A375 (pERK)) was 314 nM and the EC50 (A375) was 143 nM. For the same compound, the EC50 (p61-A375) was 1130 nM, the IC50 (Calu-6 (pERK)) was 75 nM and the IC50 (HeLa (pERK)) was 610 nM.

In the case of O=C1CCc2c(Oc3ccc4c(c3)[C@H]3[C@H](NC(=O)Nc5ccc(F)c(F)c5)[C@H]3O4)ccnc2N1 [Compound 1.45], the IC50 (B-Raf (V600E)) was 1.1 nM, the IC50 (C-Raf (Y340D/Y341D)) was 0.3 nM and the IC50 (wild type B-Raf; [1]) was 6.7 nM. The IC50 (wild type B-Raf; [2]) was 2.7 nM, the IC50 (p61-A375 (pERK)) was 325 nM and the EC50 (A375) was 32 nM. It also gave an EC50 (p61-A375) of 645 nM, an IC50 (Calu-6 (pERK)) of 84 nM and an IC50 (HeLa (pERK)) of 265 nM.

In the case of O=C1CCc2c(Oc3ccc4c(c3)[C@H]3[C@H](NC(=O)Nc5cc(F)c(F)cc5F)[C@H]3O4)ccnc2N1 [Compound 1.49], the IC50 (B-Raf (V600E)) was 1.2 nM, the IC50 (C-Raf (Y340D/Y341D)) was 0.19 nM and the IC50 (wild type B-Raf; [1]) was 7.9 nM. For the same compound, the IC50 (wild type B-Raf; [2]) was 2.5 nM, the IC50 (p61-A375 (pERK)) was 153 nM and the EC50 (A375) was 17 nM. For the same compound, the EC50 (p61-A375) was 639 nM, the IC50 (Calu-6 (pERK)) was 112 nM and the IC50 (HeLa (pERK)) was 498 nM.

For O=C1CCc2c(Oc3ccc4c(c3)[C@H]3[C@H](NC(=O)NC5CCCCCC5)[C@H]3O4)ccnc2N1 [Compound 1.52], the IC50 (B-Raf (V600E)) was 1.4 nM, the IC50 (C-Raf (Y340D/Y341D)) was 0.25 nM and the IC50 (wild type B-Raf; [2]) was 1.7 nM. It also gave an IC50 (p61-A375 (pERK)) of 173 nM, an EC50 (A375) of 47.7 nM and an IC50 (Calu-6 (pERK)) of 411 nM. The IC50 (HeLa (pERK)) was 5430 nM.

With O=C1CCc2c(Oc3ccc4c(c3)[C@H]3[C@H](NC(=O)Nc5cc(F)cc(F)c5F)[C@H]3O4)ccnc2N1 [Compound 1.53] the IC50 (B-Raf (V600E)) was 2.9 nM, the EC50 (A375) was 77 nM and the EC50 (p61-A375) was 1320 nM.

In the case of CCCS(=O)(=O)Nc1ccc(F)c(C(=O)c2c[nH]c3ncc(-c4ccc(Cl)cc4)cc23)c1F [Vemurafenib, reference compound], the IC50 (p61-A375 (pERK)) was > 10000 nM, the EC50 (A375) was 178 nM and the EC50 (p61-A375) was > 10000 nM. For the same compound, the IC50 (Calu-6 (pERK)) was > 10000 nM and the IC50 (HeLa (pERK)) was 5820 nM.
